Test results reported in patent US4988677A, “Macrolide antibiotic and its use as a medicinal agent” (Hoechst Aktiengesellschaft, priority 1986, dated 1991).

Assays:
[1] = test system: Strept. faecalis UD 86; assay: MIC of swalpamycin, agar plate test; assay type: cell-based, Streptococcus faecalis
Excerpt: (§1) The minimum inhibitory concentration (MIC) of swalpamycin has been determined for various microorganisms.

[2] = test system: Gram-positive bacteria, including erythromycin-resistant strains; assay: antibacterial activity; assay type: cell-based
Excerpt: as §1

[3] = solubility; assay type: physicochemical
Excerpt: Swalpamycin is a colorless amorphous powder which is soluble in methanol, ethanol, n-propanol, isopropanol, n-butanol, ethyl acetate, n-butyl acetate, acetone, ethyl methyl ketone, methyl isobutyl ketone, methylene chloride, chloroform, dimethylformamide and dimethyl sulfoxide.

[4] = test system: S. aureus R 85,Em^R; assay: MIC of swalpamycin, agar plate test; assay type: cell-based, Staphylococcus aureus; settings: S. aureus R 85,Em^R (Em = erythromycin)
Excerpt: (§2) The minimum inhibitory concentration (MIC) of swalpamycin has been determined for various microorganisms. The results are to be found in Table I which follows:
(§3) *Mac = macrolide, Em = erythromycin, Meth = methicillin

[5] = test system: S. aureus MLS 14,Em^R; assay: MIC of swalpamycin, agar plate test; assay type: cell-based, Staphylococcus aureus; settings: S. aureus MLS 14,Em^R (Em = erythromycin)
Excerpt: as §2, §3

[6] = test system: S. aureus 789 Meth.^R; assay: MIC of swalpamycin, agar plate test; assay type: cell-based, Staphylococcus aureus; settings: S. aureus 789 Meth.^R (Meth = methicillin)
Excerpt: as §2, §3

[7] = test system: S. aureus 712 Meth^R; assay: MIC of swalpamycin, agar plate test; assay type: cell-based, Staphylococcus aureus; settings: S. aureus 712 Meth^R (Meth = methicillin)
Excerpt: as §2, §3

[8] = test system: S. aureus MLS 16,Em^R; assay: MIC of swalpamycin, agar plate test; assay type: cell-based, Staphylococcus aureus; settings: S. aureus MLS 16,Em^R (Em = erythromycin)
Excerpt: as §2, §3

[9] = test system: S. aureus MLS 11,Em^R; assay: MIC of swalpamycin, agar plate test; assay type: cell-based, Staphylococcus aureus; settings: S. aureus MLS 11,Em^R (Em = erythromycin)
Excerpt: as §2, §3

[10] = test system: S. aureus R85/M, Em^R; assay: MIC of swalpamycin, agar plate test; assay type: cell-based, Staphylococcus aureus; settings: Em^R (Em = erythromycin)
Excerpt: as §2, §3

[11] = test system: S. aureus 20424 Mac^R; assay: MIC of swalpamycin, agar plate test; assay type: cell-based, Staphylococcus aureus; settings: S. aureus 20424 Mac^R (Mac = macrolide)
Excerpt: as §2, §3

[12] = test system: S. aureus 3066 Meth.^R; assay: MIC of swalpamycin, agar plate test; assay type: cell-based, Staphylococcus aureus; settings: S. aureus 3066 Meth.^R (Meth = methicillin)
Excerpt: as §2, §3

[13] = test system: mycoplasma; assay: antimycoplasma activity; assay type: cell-based
Excerpt: as §1

[14] = test system: Staphylococcus aureus; assay: laboratory agar plate tests, antimicrobial spectrum; assay type: cell-based; settings: sensitive and resistant strains of Staphylococcus aureus
Excerpt: as §1

[15] = test system: Mycoplasma gallinarum; assay: as above; assay type: cell-based; settings: strains of Mycoplasma gallinarum
Excerpt: as §1

[16] = test system: Streptococcus faecalis; assay: as above; assay type: cell-based; settings: sensitive and resistant strains of Streptococcus faecalis
Excerpt: as §1

[17] = test system: Streptococcus pyogenes; assay: as above; assay type: cell-based; settings: strains of Streptococcus pyogenes
Excerpt: as §1

[18] = test system: Bacillus subtilis; assay: as above; assay type: cell-based; settings: strains of Bacillus subtilis
Excerpt: as §1

[19] = test system: Mycoplasma pulmonis; assay: as above; assay type: cell-based; settings: strains of Mycoplasma pulmonis
Excerpt: as §1

[20] = test system: Sarcina lutea; assay: as above; assay type: cell-based; settings: strains of Sarcina lutea
Excerpt: as §1

[21] = test system: Micrococcus luteus; assay: as above; assay type: cell-based; settings: strains of Micrococcus luteus
Excerpt: as §1

[22] = test system: Strept. faecalis Eder:Mac^R; assay: MIC of swalpamycin, agar plate test; assay type: cell-based, Streptococcus faecalis; settings: Strept. faecalis Eder:Mac^R (Mac = macrolide)
Excerpt: as §2, §3

[23] = test system: Prov. stuartii; assay: MIC of swalpamycin, agar plate test; assay type: cell-based
Excerpt: as §1

[24] = test system: E. coli 9632; assay: MIC of swalpamycin, agar plate test; assay type: cell-based
Excerpt: as §1

[25] = test system: E. coli ESS 2231; assay: MIC of swalpamycin, agar plate test; assay type: cell-based
Excerpt: as §1

[26] = test system: Candida albicans; assay: MIC of swalpamycin, agar plate test; assay type: cell-based
Excerpt: as §1

[27] = test system: Pr. vulgaris; assay: MIC of swalpamycin, agar plate test; assay type: cell-based
Excerpt: as §1

[28] = test system: Ps. aeruginosa M 35; assay: MIC of swalpamycin, agar plate test; assay type: cell-based
Excerpt: as §1

[29] = test system: Bacillus subtilis; assay: MIC of swalpamycin, agar plate test; assay type: cell-based
Excerpt: as §1

[30] = test system: Ent. cloacae; assay: MIC of swalpamycin, agar plate test; assay type: cell-based
Excerpt: as §1

[31] = test system: Cit. freundii; assay: MIC of swalpamycin, agar plate test; assay type: cell-based
Excerpt: as §1

[32] = test system: Sarcina lutea; assay: MIC of swalpamycin, agar plate test; assay type: cell-based
Excerpt: as §1

[33] = test system: Micrococcus luteus; assay: MIC of swalpamycin, agar plate test; assay type: cell-based
Excerpt: as §1

[34] = test system: S. aureus 209P; assay: MIC of swalpamycin, agar plate test; assay type: cell-based, Staphylococcus aureus
Excerpt: as §1

In the case of `COC1C(OCC2/C=C/C=C/C(=O)C(C)CC(C)C(OC3OC(C)CC4(OC(=O)OC4C)C3O)C(C)/C=C/C(=O)OC2C)OC(C)C(O)C1OC` (stereo not drawn) [Swalpamycin, swalpamycin], the “minimum inhibitory concentration (MIC)” value [1] is reported as over 50, the activity [2] is reported as “active” and the “solubility in hexane and petroleum ether” value ([3]; hexane, petroleum ether (40°-60°)) is reported as “sparingly soluble or insoluble”. For the same compound, the “solubility in organic solvents” value ([3]; methanol, ethanol, n-propanol, isopropanol, n-butanol, ethyl acetate, n-butyl acetate, acetone, ethyl methyl ketone, methyl isobutyl ketone, methylene chloride, chloroform, dimethylformamide, dimethyl sulfoxide) was “soluble”, the solubility in water ([3]; water) was “sparingly soluble or insoluble” and the “minimum inhibitory concentration (MIC)” value [4] was 12.5. The “minimum inhibitory concentration (MIC)” value [5] was 25, the “minimum inhibitory concentration (MIC)” value [6] was over 50 and the “minimum inhibitory concentration (MIC)” value [7] was 12.5. The “minimum inhibitory concentration (MIC)” value [8] was 12.5, the “minimum inhibitory concentration (MIC)” value [9] was 25 and the “minimum inhibitory concentration (MIC)” value [10] was over 50. The “minimum inhibitory concentration (MIC)” value [11] was 50, the “minimum inhibitory concentration (MIC)” value [12] was 3.2 and the activity [13] was “active”. For the same compound, the “antimicrobial activity in vitro” value [14] was “acts in vitro against sensitive and resistant strains”, the “antimicrobial activity in vitro” value [15] was “acts in vitro” and the “antimicrobial activity in vitro” value [16] was “acts in vitro against sensitive and resistant strains”. For the same compound, the “antimicrobial activity in vitro” value [17] was “acts in vitro”, the “antimicrobial activity in vitro” value [18] was “acts in vitro” and the “antimicrobial activity in vitro” value [19] was “acts in vitro”. For the same compound, the “antimicrobial activity in vitro” value [20] was “acts in vitro”, the “antimicrobial activity in vitro” value [21] was “acts in vitro” and the “minimum inhibitory concentration (MIC)” value [22] was over 50. The “minimum inhibitory concentration (MIC)” value [23] was over 50, the “minimum inhibitory concentration (MIC)” value [24] was over 50 and the “minimum inhibitory concentration (MIC)” value [25] was over 50. For the same compound, the “minimum inhibitory concentration (MIC)” value [26] was over 50, the “minimum inhibitory concentration (MIC)” value [27] was over 50 and the “minimum inhibitory concentration (MIC)” value [28] was over 50. The “minimum inhibitory concentration (MIC)” value [29] was 0.1, the “minimum inhibitory concentration (MIC)” value [30] was over 50 and the “minimum inhibitory concentration (MIC)” value [31] was over 50. For the same compound, the “minimum inhibitory concentration (MIC)” value [32] was 0.2, the “minimum inhibitory concentration (MIC)” value [33] was 1.6 and the “minimum inhibitory concentration (MIC)” value [34] was 6.3.
